Measured values reported in patent US20140303092A1 (CHIMERIX, INC., priority 2011, published 2014).

Assay: Study HDP-CDV-201: safety and tolerability (adverse events, laboratory abnormalities, discontinuations)
Assay type: in vivo, human (adult allogeneic HSCT recipients)
Protocol: Clinical Studies of HDP-CDV were performed and described in detail in the following Examples. For example, HDP-CDV-201 is a placebo-controlled, dose-escalating trial in HSCT CMV (R+) recipients, evaluating the ability of HDP-CDV to prevent or control CMV infection was carried out. Five cohorts were established in which participants or subjects received either placebo or the HDP-CDV orally, in doses ranging from 40 mg weekly (QW) to 200 mg twice weekly (BIW). Subjects who were post-HSCT were enrolled at the time of engraftment and randomized to HDP-CDV or placebo (3 to 1 ratio) and received blinded therapy until approximately 100 day post-transplantation. HDP-CDV doses were 40 mg QW, 100 mg QW, 200 mg QW, 200 mg BIW and 100 mg BIW. Escalation to the next dose was decided by the data monitoring committee after review of the safety data from the previous Cohort. Subjects who developed CMV disease or CMV infection requiring pre-emptive therapy with local standard of care were discontinued from blinded therapy and followed for 4 weeks. Subjects who completed treatment with blinded therapy were followed for 8 weeks post-therapy.
Data from Study HDP-CDV-201 also provided characterization of the safety and tolerability profile of HDP-CDV when administered for the prevention or control of CMV infection in high risk (R^+) post-HSCT adult subjects.
The Safety population (SAFETY) included all randomized subjects who took at least one dose of study treatment. This population was used to summarize safety outcomes based on the treatment actually received, in cases where a subject was treated contrary to the randomization schedule.
The safety and tolerability profile of HDP-CDV, including subject demographics and Baseline characteristics; the AE profile; and laboratory abnormalities of interest were analyzed in the cohorts followed in this investigation.
Subjects completing the treatment period received a full course of study medication; those completing the entire study attended visits through 8 weeks of follow up. Subjects who discontinued treatment may have done so for protocol specified reasons (e.g. development of clinically significant CMV infection requiring preemptive treatment with excluded anti-CMV medications) or for other reasons (e.g., withdrawal, adverse events, loss to follow-up). The disposition of subjects in Study HDP-CDV-201 during the double-blind, placebo-controlled treatment period (through Week 11) is listed by dosing Cohort in TABLE 23.
Adverse events were examined by severity to ensure that all safety signals were identified in this study population. Because of the frequency of events in HSCT recipients, particular attention was given to evaluation of Grade 3 […], 4 (severe), and 5 (fatal) adverse events.
Only those preferred terms for which at least one Grade 3 or higher event was experienced in any treatment group are listed. Cytomegalovirus-related AEs are excluded from this analysis.
HDP-CDV is a lipid conjugate of CDV. Because CDV is known to have adverse effects on renal function and bone marrow, decreased GFR and persistent neutropenia were identified as AEs of special interest. Key renal and hematological (TABLE 30) laboratory parameters were measured and listed below by Study HDP-CDV-201 treatment groups. TABLE 30 includes abnormal levels of serum creatinine, neutrophils, platelets, WBCs, and hemoglobin and includes data at Screening and during the treatment period.
A common metric for unit based dosing of medications is by weight (mg/kg). When the distribution of weights was examined for all subjects participating in the study, the median was 78 kg and the lower 25th percentile weight was approximately 65 kg, which translates to a cut-off of ˜3 mg/kg for a 200 mg total weekly dose. Based upon this approach, a cut-off of 3 mg/kg was used to assess the frequency of diarrhea and associated GI AEs reported for the subjects in Cohorts 3 or 4a (TABLE 40).

[1] = Cohort 4, 200 mg BIW, through Week 11

CCCCCCCCCCCCCCCCOCCCOP(=O)(O)COC(CO)Cn1ccc(N)nc1=O (stereo not drawn) [HDP-CDV]
3: Grade of hepatobiliary AE acute liver injury, subject 4008 (Cohort 4, drug withdrawn)
1 (2.0%): ALT (any time during therapy) >10 × ULN-20 × ULN, subjects (Cohort 4A, 100 mg BIW) | ALT (any time during therapy) >20 × ULN, subjects (Cohort 4A, 100 mg BIW) | GI AE Leading to Study Drug Discontinuation: Abdominal pain, subjects (Cohort 4A, 100 mg BIW) | GI AE Leading to Study Drug Discontinuation: Nausea, subjects (Cohort 4A, 100 mg BIW) | GI AE Leading to Study Drug Discontinuation: Vomiting, subjects (Cohort 4A, 100 mg BIW) | Gastrointestinal AE Haemorroids, subjects (Cohort 4A, 100 mg BIW)
13 (26.0%): Gastrointestinal AE Abdominal pain, subjects (Cohort 4A, 100 mg BIW)
recovered/resolved: Outcome of hepatobiliary AE hyperbilirubinemia, subject 4042 (Cohort 4, drug interrupted) | Outcome of hepatobiliary AE acute liver injury, subject 4008 (Cohort 4, drug withdrawn)
1 subject(s): subjects discontinued due to neutropenia (Cohort 4A)
3 (10.0%) n (%): TEAE Abdominal pain, Upper (Cohort 4, 200 mg BIW, N = 30) | TEAE Acute Renal Failure (Cohort 4, 200 mg BIW, N = 30) | TEAE Back Pain (Cohort 4, 200 mg BIW, N = 30) | TEAE Blood lactate dehydrogenase increased (Cohort 4, 200 mg BIW, N = 30) | TEAE Dysgeusia (Cohort 4, 200 mg BIW, N = 30) | TEAE Gamma-glutamyltransferase increased (Cohort 4, 200 mg BIW, N = 30) | TEAE Generalized oedema (Cohort 4, 200 mg BIW, N = 30) | TEAE Hyperkalemia (Cohort 4, 200 mg BIW, N = 30) | TEAE Hypocalcaemia (Cohort 4, 200 mg BIW, N = 30) | TEAE Increased leukocytosis (Cohort 4, 200 mg BIW, N = 30) | TEAE Liver function test abnormal (Cohort 4, 200 mg BIW, N = 30) | TEAE Malnutrition (Cohort 4, 200 mg BIW, N = 30) | TEAE Oedema peripheral (Cohort 4, 200 mg BIW, N = 30) | TEAE Recurrent flatulence (Cohort 4, 200 mg BIW, N = 30)
10 (20.0%): ALT (any time during therapy) >3 × ULN-5 × ULN, subjects (Cohort 4A, 100 mg BIW)
possibly related: Relationship of hepatobiliary AE acute liver injury, subject 4008 (Cohort 4, drug withdrawn)
1 (3.3%) n (%): TEAE Arthralgias (Cohort 4, 200 mg BIW, N = 30) | TEAE Oral Candidiasis (Cohort 4, 200 mg BIW, N = 30) | TEAE Pneumonia (Cohort 4, 200 mg BIW, N = 30) | TEAE Staphylococcal Bacteremia (Cohort 4, 200 mg BIW, N = 30)
4 (8.0%): ALT (any time during therapy) >5 × ULN-10 × ULN, subjects (Cohort 4A, 100 mg BIW) | Gastrointestinal AE Abdominal discomfort, subjects (Cohort 4A, 100 mg BIW) | Gastrointestinal AE Dyspepsia, subjects (Cohort 4A, 100 mg BIW)
2 (6.7%) n (%): TEAE Anxiety (Cohort 4, 200 mg BIW, N = 30) | TEAE Creatinine increased (Cohort 4, 200 mg BIW, N = 30) | TEAE GI Reflux Disease (Cohort 4, 200 mg BIW, N = 30) | TEAE Hyponatraemia (Cohort 4, 200 mg BIW, N = 30) | TEAE Insomnia (Cohort 4, 200 mg BIW, N = 30) | TEAE Pyrexia (Cohort 4, 200 mg BIW, N = 30) | TEAE Tremor (Cohort 4, 200 mg BIW, N = 30)
1 (3.3%): Nausea leading to study drug withdrawal (Cohort 4, 200 mg BIW, N = 30)
4 (13.3%): All AEs, Grade 5 (deaths) (Cohort 4, 200 mg BIW, N = 30, entire study duration)
0%: Dyspepsia leading to study drug withdrawal (Cohort 4, 200 mg BIW, N = 30) | Vomiting leading to study drug withdrawal (Cohort 4, 200 mg BIW, N = 30)
7 (23.3%) n (%): TEAE AST increased (Cohort 4, 200 mg BIW, N = 30) | Subjects completed treatment [1]
1 (2.2%): ALT (Screening) >3 × ULN-5 × ULN, subjects (Cohort 4A, 100 mg BIW) | ALT (Screening) >5 × ULN-10 × ULN, subjects (Cohort 4A, 100 mg BIW) | ALT (Screening) >10 × ULN-20 × ULN, subjects (Cohort 4A, 100 mg BIW) | AST (Screening) >3 × ULN-5 × ULN, subjects (Cohort 4A, 100 mg BIW) | AST (Screening) >5 × ULN-10 × ULN, subjects (Cohort 4A, 100 mg BIW) | AST (Screening) >10 × ULN-20 × ULN, subjects (Cohort 4A, 100 mg BIW)
17 (34.0%): Gastrointestinal AE Nausea, subjects (Cohort 4A, 100 mg BIW)
26 (52.0%): Gastrointestinal AE Diarrhoea, subjects (Cohort 4A, 100 mg BIW)
0 n (%): TEAE Acute Myeloid Leukemia recurrent (Cohort 4, 200 mg BIW, N = 30) | TEAE Fatigue (Cohort 4, 200 mg BIW, N = 30) | TEAE Renal Failure (Cohort 4, 200 mg BIW, N = 30)
21 (70.0%) n (%): TEAE Diarrhoea (Cohort 4, 200 mg BIW, N = 30)
23 (76.7%) n (%): Subjects who permanently discontinued treatment [1]
22 (44.0%): Gastrointestinal AE Vomiting, subjects (Cohort 4A, 100 mg BIW)
11 (36.7%) n (%): TEAE Abdominal pain (Cohort 4, 200 mg BIW, N = 30) | TEAE Nausea (Cohort 4, 200 mg BIW, N = 30)
0: ALT (Screening) >20 × ULN, subjects (Cohort 4A, 100 mg BIW) | AST (Screening) >20 × ULN, subjects (Cohort 4A, 100 mg BIW) | AST (any time during therapy) >10 × ULN-20 × ULN, subjects (Cohort 4A, 100 mg BIW) | AST (any time during therapy) >20 × ULN, subjects (Cohort 4A, 100 mg BIW) | Alkaline Phosphatase (Screening) >2.5-5.0 × ULN, subjects (Cohort 4A, 100 mg BIW) | Alkaline Phosphatase (Screening) >5.0-20.0 × ULN, subjects (Cohort 4A, 100 mg BIW) | Alkaline Phosphatase (Screening) >20.0 × ULN, subjects (Cohort 4A, 100 mg BIW) | Alkaline Phosphatase (any time during therapy) >5.0-20.0 × ULN, subjects (Cohort 4A, 100 mg BIW) | Alkaline Phosphatase (any time during therapy) >20.0 × ULN, subjects (Cohort 4A, 100 mg BIW) | GI AE Leading to Study Drug Discontinuation: Dyspepsia, subjects (Cohort 4A, 100 mg BIW) | Gastrointestinal AE Abdominal distention, subjects (Cohort 4A, 100 mg BIW) | Gastrointestinal AE Diverticulum intestinal haemorragic, subjects (Cohort 4A, 100 mg BIW) | Gastrointestinal AE Dysphagia, subjects (Cohort 4A, 100 mg BIW) | Gastrointestinal AE Epigastric discomfort, subjects (Cohort 4A, 100 mg BIW) | Gastrointestinal AE GERD, subjects (Cohort 4A, 100 mg BIW) | Gastrointestinal AE Gastritis, subjects (Cohort 4A, 100 mg BIW) | Gastrointestinal AE Haematochezia, subjects (Cohort 4A, 100 mg BIW) | Gastrointestinal AE Large intestinal ulcer, subjects (Cohort 4A, 100 mg BIW) | Gastrointestinal AE Odynophagia, subjects (Cohort 4A, 100 mg BIW) | Gastrointestinal AE Oesophagitis, subjects (Cohort 4A, 100 mg BIW) | Hepatobiliary clinical AE Cholelithiasis, subjects (Cohort 4A, 100 mg BIW) | Hepatobiliary clinical AE Hepatomegaly, subjects (Cohort 4A, 100 mg BIW) | Hepatobiliary clinical AE Jaundice, subjects (Cohort 4A, 100 mg BIW) | Hepatobiliary clinical AE Liver injury, subjects (Cohort 4A, 100 mg BIW)
11 (22.0%): Alkaline Phosphatase (any time during therapy) >ULN-[…] ULN, subjects (Cohort 4A, 100 mg BIW)
not related: Relationship of hepatobiliary AE hyperbilirubinemia, subject 4042 (Cohort 4, drug interrupted)
10 (33.3%) n (%): TEAE ALT increased (Cohort 4, 200 mg BIW, N = 30)
8 (17.4%): Alkaline Phosphatase (Screening) >ULN-[…] ULN, subjects (Cohort 4A, 100 mg BIW)
2 (4.0%): AST (any time during therapy) >3 × ULN-5 × ULN, subjects (Cohort 4A, 100 mg BIW) | GI AE Leading to Study Drug Discontinuation: Diarrhoea, subjects (Cohort 4A, 100 mg BIW) | Gastrointestinal AE Abdominal pain upper, subjects (Cohort 4A, 100 mg BIW) | Gastrointestinal AE Constipation, subjects (Cohort 4A, 100 mg BIW) | Gastrointestinal AE Retching, subjects (Cohort 4A, 100 mg BIW)
5 (16.7%) n (%): TEAE Cytomegalovirus viremia (Cohort 4, 200 mg BIW, N = 30) | TEAE Decreased appetite (Cohort 4, 200 mg BIW, N = 30) | TEAE Hyperbilirubinaemia (Cohort 4, 200 mg BIW, N = 30) | TEAE Hypokalaemia (Cohort 4, 200 mg BIW, N = 30) | TEAE Thrombocytopenia (Cohort 4, 200 mg BIW, N = 30)
1: Grade of hepatobiliary AE hyperbilirubinemia, subject 4042 (Cohort 4, drug interrupted)
24 (80.0%) n (%): TEAE Acute GVHD (Cohort 4, 200 mg BIW, N = 30)
4 (13.3%) n (%): TEAE Neutropenia (Cohort 4, 200 mg BIW, N = 30)
5 (10.0%): GI AEs Leading to Study Drug Discontinuation: Total subjects discontinued (Cohort 4A, 100 mg BIW)
8 (26.7%) n (%): TEAE Hyperglycaemia (Cohort 4, 200 mg BIW, N = 30) | TEAE Vomiting (Cohort 4, 200 mg BIW, N = 30)
3 (6.0%): AST (any time during therapy) >5 × ULN-10 × ULN, subjects (Cohort 4A, 100 mg BIW) | Alkaline Phosphatase (any time during therapy) >2.5-5.0 × ULN, subjects (Cohort 4A, 100 mg BIW) | Gastrointestinal AE Flatulence, subjects (Cohort 4A, 100 mg BIW) | Hepatobiliary clinical AE Hyperbilirubinaemia, subjects (Cohort 4A, 100 mg BIW)
